Holding throughout (type): in vivo
Assay [1] has as its system Rhipicephalus microplus larvae (strain Parkhurst, resistant against synthetic pyrethroids). Nature of the assay: Rhipicephalus (Boophilus) microplus in-vitro contact test, larval cattle tick. The following applies: 5 μg/cm^2 (=500 g/ha), after 48 hours, read-out: efficacy (larvae dead or moribund). The gist of the method:
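Compound in acetone coated on glass tube inner walls; 900 ppm gives 5 μg/cm^2. Pyrethroid-resistant Parkhurst larvae (20-50 per tube) held at 27 °C, 85% relative humidity. Efficacy scored after 48 h from loss of negative geotaxis; 100% means all larvae dead or moribund.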

For assay [2], the system named is adult cat fleas (Ctenocephalides felis). Nature of the assay: Ctenocephalides felis in-vitro contact test, adult cat flea. To be noted: after 48 hours, read-out: efficacy (fleas dead or moribund); for pest or weed control at 1 µg/cm2, 100 g/ha: 1 μg/cm^2 (=100 g/ha); for pest or weed control at 5 µg/cm2, 500 g/ha: 5 μg/cm^2 (=500 g/ha). An outline of the steps:
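Compound in acetone coated onto glass tube inner walls (900 ppm giving 5 μg/cm^2); after drying, 5-10 adult fleas added and held at room temperature. After 48 h, fleas heat-stressed at 45-50° C for up to 5 min; immotile or uncoordinated fleas scored dead/moribund, giving % efficacy.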

Assay [3] relates to adult unfed cat fleas (Ctenocephalides felis). As to the kind of experiment: Ctenocephalides felis oral test. The following applies: 48 h. The gist of the method:
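About 20 adult unfed fleas fed through parafilm on cattle blood containing compound (DMSO concentrate diluted in blood); blood held at 37° C., fleas at room temperature. Mortality in % scored after 2 days (100% = all killed).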

In assay [4] the test system is adult brown dog ticks (Rhipicephalus sanguineus). As to the kind of experiment: Rhipicephalus sanguineus in-vitro contact test with adult brown dog ticks. To be noted: 5 μg/cm^2 (=500 g/ha), after 48 hours, read-out: efficacy (ticks dead or moribund). An outline of the steps: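 Efficacy is % of adult ticks dead or moribund 48 h after confinement at room temperature in tubes wall-coated from acetone (5 μg/cm² at 900 ppm). Scoring by heat challenge at 45-50 °C up to 5 min; immotile or uncoordinated ticks failing to climb count as affected.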

Assay [5] has as its system green peach aphid (Myzus persicae). Nature of the assay: Myzus persicae oral test. The following applies: 120 h. An outline of the steps: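 Compound in acetone was diluted with water, and 50 μL was mixed with 150 μL IPL41 insect medium (33% + 15% sugar). A mixed aphid population fed on this through a parafilm seal. Mortality % was scored after 5 days, where 100% means all aphids were killed.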

Assay [6] deals with fall armyworm larvae (Spodoptera frugiperda). Nature of the assay: Spodoptera frugiperda spray test. To be noted: in Zea mays, 168 h.
Assay [7] has as its system Aedes aegypti strain MONHEIM. As to the kind of experiment: Aedes aegypti test (AEDSAE surface treatment & contact assay). The following applies: 24 hours after contact, read-out: efficacy (mortality); for mortality at 4 mg/m2: surface concentration 4 mg/m^2, 30 minutes exposure; for mortality at 20 mg/m2: surface concentration 20 mg/m^2, 30 minutes exposure. An outline of the steps:
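Compound dissolved in acetone (2 mg/ml) with 2000 ppm rapeseed oil methyl ester, then dried onto a glazed tile. Adult A. aegypti (MONHEIM strain) exposed to the surface for 30 min. Percent mortality scored 24 h after contact.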

The subject of assay [8] is Musca domestica strain WHO-N. Nature of the assay: Musca domestica test (MUSCDO surface treatment & contact assay). The following applies: 24 hours after contact, read-out: efficacy (mortality); for mortality at 20 mg/m2: surface concentration 20 mg/m^2, 30 minutes exposure.

Each structure is given as a SMILES string.

We go through three molecules from patent publication US20220386611A1, “NOVEL HETEROARYL-TRIAZOLE COMPOUNDS AS PESTICIDES” (Bayer Aktiengesellschaft, priority 2019, published 2022).

As usually defined, the mortality is the percentage killed. Turning to `CC(NC(=O)c1cc(C(F)(F)F)cc(C(F)(F)F)c1)c1nc(Cl)nn1-c1ncccn1` (stereo not shown) [Example I-002], the pest or weed control at 5 µg/cm2 in assay [1] was 100%. Further, the pest or weed control at 1 µg/cm2, 100 g/ha in assay [2] is 100%. In assay [3], this molecule registered a mortality at 100 ppm of 100%. Further, the pest or weed control at 5 µg/cm2, 500 g/ha in assay [4] amounted to 80%. In assay [5], this molecule came in with a mortality at 4 ppm of 100%. This molecule yielded a mortality at 100 g/ha in assay [6] of 100%. In assay [7], the mortality at 4 mg/m2 is 80 to 100% and the mortality at 20 mg/m2 lay in the range of 80 to 100%. In assay [8], the mortality at 20 mg/m2 was 80 to 100%.

Turning to `CC(NC(=O)c1cc(C(F)(F)F)cc(C(F)(F)F)c1)c1nc(Br)nn1-c1ncccn1` (stereo not shown) [Example I-010], the pest or weed control at 5 µg/cm2 in assay [1] was found to be 100%. The pest or weed control at 5 µg/cm2, 500 g/ha in assay [2] was determined as 80%; in assay [4], 100%. Moreover, the mortality at 100 ppm in assay [3] came to 100%. In assay [5], the mortality at 4 ppm came to 100%. The molecule also showed a mortality at 100 g/ha in assay [6] of 100%. Further, the mortality at 20 mg/m2 in assay [7] and in assay [8] was 80 to 100% in each case.

Take `CC(NC(=O)c1cc(C(F)(F)F)cc(C(F)(F)F)c1)c1nc(I)nn1-c1ncccn1` (stereo not shown) [Example I-021]: the pest or weed control at 5 µg/cm2 in assay [1] was determined as 100%. For the same molecule, the pest or weed control at 1 µg/cm2, 100 g/ha in assay [2] was 100%. Besides, the pest or weed control at 5 µg/cm2, 500 g/ha was determined as 100% in assay [2] and 80% in assay [4]. This molecule yielded a mortality at 100 ppm in assay [3] of 100%. In assay [5], this molecule had a mortality at 4 ppm of 100%. Also, the mortality at 100 g/ha in assay [6] worked out at 100%. Further, the mortality at 4 mg/m2 in assay [7] was 80 to 100%; in assay [8] (surface concentration 4 mg/m^2, 30 minutes exposure) it was 80 to 100%. Besides, the mortality at 20 mg/m2 in assay [7] and in assay [8] was 80 to 100% each time.
